{"source": "PubChem BioAssay (NCI)", "assay_in_all_cases": "NCI-60 cell line screen, 384-well format", "key": {"UACC-257 melanoma": {"tested_on": "UACC-257 melanoma"}, "MDA-MB-435 melanoma": {"tested_on": "MDA-MB-435 melanoma"}, "LOX IMVI melanoma": {"tested_on": "LOX IMVI melanoma"}, "HL-60(TB) leukemia": {"tested_on": "HL-60(TB) leukemia"}, "SK-MEL-5 melanoma": {"tested_on": "SK-MEL-5 melanoma"}, "DU-145 prostate": {"tested_on": "DU-145 prostate"}, "SNB-19 CNS": {"tested_on": "SNB-19 CNS"}, "SR leukemia": {"tested_on": "SR leukemia"}, "TK-10 renal": {"tested_on": "TK-10 renal"}, "EKVX NSCLC": {"tested_on": "EKVX NSCLC"}, "786-0 renal": {"tested_on": "786-0 renal"}, "MDA-MB-468 breast": {"tested_on": "MDA-MB-468 breast"}, "A498 renal": {"tested_on": "A498 renal"}, "SF-539 CNS": {"tested_on": "SF-539 CNS"}, "SW-620 colon": {"tested_on": "SW-620 colon"}, "RPMI-8226 leukemia": {"tested_on": "RPMI-8226 leukemia"}, "UACC-62 melanoma": {"tested_on": "UACC-62 melanoma"}, "HCC-2998 colon": {"tested_on": "HCC-2998 colon"}, "HS 578T breast": {"tested_on": "HS 578T breast"}, "SF-268 CNS": {"tested_on": "SF-268 CNS"}, "MCF7 breast": {"tested_on": "MCF7 breast"}, "U251 glioblastoma": {"tested_on": "U251 glioblastoma"}, "PC-3 prostate": {"tested_on": "PC-3 prostate"}, "COLO 205 colon": {"tested_on": "COLO 205 colon"}, "OVCAR-4 ovarian": {"tested_on": "OVCAR-4 ovarian"}, "KM12 colon": {"tested_on": "KM12 colon"}, "K-562 leukemia": {"tested_on": "K-562 leukemia"}, "HT29 colon": {"tested_on": "HT29 colon"}, "NCI-H23 lung": {"tested_on": "NCI-H23 lung"}, "CAKI-1 renal": {"tested_on": "CAKI-1 renal"}}, "note": "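GI50 = concentration required for 50% inhibition of growth. TGI: total growth inhibition.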"}
{"compound": "CCS(=O)(=O)N1CCN(c2ccc(Nc3ncc(C(N)=O)c(NC4CC4)n3)cc2)CC1", "values": [{"measurement": "GI50", "setting": "UACC-257 melanoma", "result": 10.2, "unit": "µM"}, {"measurement": "TGI", "setting": "UACC-257 melanoma", "result": 63, "unit": "µM"}, {"measurement": "GI50", "setting": "MDA-MB-435 melanoma", "result": 1.63, "unit": "µM"}, {"measurement": "TGI", "setting": "MDA-MB-435 melanoma", "result": 8.98, "unit": "µM"}, {"measurement": "GI50", "setting": "LOX IMVI melanoma", "result": 2.01, "unit": "µM"}, {"measurement": "TGI", "setting": "LOX IMVI melanoma", "result": 13.3, "unit": "µM"}, {"measurement": "GI50", "setting": "HL-60(TB) leukemia", "result": 0.418, "unit": "µM"}, {"measurement": "TGI", "setting": "HL-60(TB) leukemia", "result": 2.04, "unit": "µM"}, {"measurement": "GI50", "setting": "SK-MEL-5 melanoma", "result": 1.39, "unit": "µM"}, {"measurement": "TGI", "setting": "SK-MEL-5 melanoma", "result": 4.65, "unit": "µM"}, {"measurement": "GI50", "setting": "DU-145 prostate", "result": 2.82, "unit": "µM"}, {"measurement": "TGI", "setting": "DU-145 prostate", "result": 18.8, "unit": "µM"}, {"measurement": "GI50", "setting": "SNB-19 CNS", "result": 8.88, "unit": "µM"}, {"measurement": "TGI", "setting": "SNB-19 CNS", "result": "> 100", "unit": "µM"}, {"measurement": "GI50", "setting": "SR leukemia", "result": 0.368, "unit": "µM"}, {"measurement": "TGI", "setting": "SR leukemia", "result": 1.29, "unit": "µM"}, {"measurement": "GI50", "setting": "TK-10 renal", "result": 2.2, "unit": "µM"}, {"measurement": "TGI", "setting": "TK-10 renal", "result": 5.5, "unit": "µM"}, {"measurement": "GI50", "setting": "EKVX NSCLC", "result": 1.92, "unit": "µM"}, {"measurement": "TGI", "setting": "EKVX NSCLC", "result": 10.2, "unit": "µM"}, {"measurement": "GI50", "setting": "786-0 renal", "result": 1.6, "unit": "µM"}, {"measurement": "TGI", "setting": "786-0 renal", "result": 3.41, "unit": "µM"}, {"measurement": "GI50", "setting": "MDA-MB-468 breast", "result": 2.05, "unit": "µM"}, {"measurement": "TGI", "setting": "MDA-MB-468 breast", "result": 3.75, "unit": "µM"}, {"measurement": "GI50", "setting": "A498 renal", "result": 1.68, "unit": "µM"}, {"measurement": "TGI", "setting": "A498 renal", "result": 5.19, "unit": "µM"}, {"measurement": "GI50", "setting": "SF-539 CNS", "result": 1.18, "unit": "µM"}, {"measurement": "TGI", "setting": "SF-539 CNS", "result": 2.73, "unit": "µM"}, {"measurement": "GI50", "setting": "SW-620 colon", "result": 44.9, "unit": "µM"}, {"measurement": "TGI", "setting": "SW-620 colon", "result": "> 100", "unit": "µM"}, {"measurement": "GI50", "setting": "RPMI-8226 leukemia", "result": 0.155, "unit": "µM"}, {"measurement": "TGI", "setting": "RPMI-8226 leukemia", "result": 0.401, "unit": "µM"}, {"measurement": "GI50", "setting": "UACC-62 melanoma", "result": 9.42, "unit": "µM"}, {"measurement": "TGI", "setting": "UACC-62 melanoma", "result": 23.9, "unit": "µM"}, {"measurement": "GI50", "setting": "HCC-2998 colon", "result": 2.5, "unit": "µM"}, {"measurement": "TGI", "setting": "HCC-2998 colon", "result": 5.15, "unit": "µM"}, {"measurement": "GI50", "setting": "HS 578T breast", "result": 2.01, "unit": "µM"}, {"measurement": "TGI", "setting": "HS 578T breast", "result": 4.45, "unit": "µM"}, {"measurement": "GI50", "setting": "SF-268 CNS", "result": 1.9, "unit": "µM"}, {"measurement": "TGI", "setting": "SF-268 CNS", "result": 21.5, "unit": "µM"}, {"measurement": "GI50", "setting": "MCF7 breast", "result": 1.41, "unit": "µM"}, {"measurement": "TGI", "setting": "MCF7 breast", "result": 22.3, "unit": "µM"}, {"measurement": "GI50", "setting": "U251 glioblastoma", "result": 6.79, "unit": "µM"}, {"measurement": "TGI", "setting": "U251 glioblastoma", "result": "> 100", "unit": "µM"}, {"measurement": "GI50", "setting": "PC-3 prostate", "result": 10.4, "unit": "µM"}, {"measurement": "TGI", "setting": "PC-3 prostate", "result": "> 100", "unit": "µM"}, {"measurement": "GI50", "setting": "COLO 205 colon", "result": 0.485, "unit": "µM"}, {"measurement": "TGI", "setting": "COLO 205 colon", "result": 2.18, "unit": "µM"}, {"measurement": "GI50", "setting": "OVCAR-4 ovarian", "result": 2.06, "unit": "µM"}, {"measurement": "TGI", "setting": "OVCAR-4 ovarian", "result": 5.72, "unit": "µM"}, {"measurement": "GI50", "setting": "KM12 colon", "result": 0.44, "unit": "µM"}, {"measurement": "TGI", "setting": "KM12 colon", "result": 12, "unit": "µM"}, {"measurement": "GI50", "setting": "K-562 leukemia", "result": 2.06, "unit": "µM"}, {"measurement": "TGI", "setting": "K-562 leukemia", "result": 8.1, "unit": "µM"}, {"measurement": "GI50", "setting": "HT29 colon", "result": 4.09, "unit": "µM"}, {"measurement": "TGI", "setting": "HT29 colon", "result": 56.4, "unit": "µM"}, {"measurement": "GI50", "setting": "NCI-H23 lung", "result": 1.29, "unit": "µM"}, {"measurement": "TGI", "setting": "NCI-H23 lung", "result": 4.25, "unit": "µM"}, {"measurement": "GI50", "setting": "CAKI-1 renal", "result": 6.05, "unit": "µM"}]}
